{"source": "patent US20070219212A1", "about": "“Pyranouidole Derivatives and the Use Thereof for the Treatment of Hepatitis C Virus Infection or Disease” (priority 2004, published 2007)", "key": {"[1]": {"molecular_target": "T1, NS5B from the BK strain (genotype 1b) (Hepatitis C virus genotype 1b, UniProt P26663)", "T1 construct": "NS5B from the BK strain (genotype 1b) is expressed in E coli as a protein in which the 21 C-terminal amino acids are replaced; made in house; host or cells: E. coli", "T1 sequence (P26663 2420-2989)": "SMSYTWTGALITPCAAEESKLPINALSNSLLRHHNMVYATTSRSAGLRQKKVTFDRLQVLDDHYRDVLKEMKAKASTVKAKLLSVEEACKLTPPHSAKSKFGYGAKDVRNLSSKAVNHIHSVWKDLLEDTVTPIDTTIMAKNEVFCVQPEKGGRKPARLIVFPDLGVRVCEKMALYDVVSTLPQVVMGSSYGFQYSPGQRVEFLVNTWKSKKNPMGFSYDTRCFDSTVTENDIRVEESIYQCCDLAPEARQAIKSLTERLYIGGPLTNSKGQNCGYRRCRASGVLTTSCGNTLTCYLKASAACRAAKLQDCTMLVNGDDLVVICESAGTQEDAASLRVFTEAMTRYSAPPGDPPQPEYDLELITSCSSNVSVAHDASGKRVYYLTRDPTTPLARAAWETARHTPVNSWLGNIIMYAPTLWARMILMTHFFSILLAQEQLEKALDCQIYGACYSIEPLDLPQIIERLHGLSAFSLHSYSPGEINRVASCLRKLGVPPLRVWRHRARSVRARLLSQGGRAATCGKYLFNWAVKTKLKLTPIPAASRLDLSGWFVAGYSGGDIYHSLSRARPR", "test": "Hepatitis C polymerase (NS5B, BK strain) inhibition, radioactive filter assay", "format": "biochemical", "settings": "NS5B BK strain (genotype 1b)", "summary_of_the_method": "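E. coli-expressed C-terminally truncated His-tagged NS5B preincubated 15 min with compound at room temperature, then run 2 h at 22-25 °C on a hairpin-primed heteropolymeric RNA template (~3 nM) with radioactive nucleotides. EDTA stop; ~760 nt 33P product captured on filters, washed with phosphate buffer pH 7.0, scintillation counted.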"}, "[2]": {"molecular_target": "BB7 RNA-dependent RNA polymerase hepatitis C virus protein (Con1 HCV sequence) (Hepatitis C virus genotype 1b, UniProt Q9WMX2)", "sequence (Q9WMX2 2420-3010)": "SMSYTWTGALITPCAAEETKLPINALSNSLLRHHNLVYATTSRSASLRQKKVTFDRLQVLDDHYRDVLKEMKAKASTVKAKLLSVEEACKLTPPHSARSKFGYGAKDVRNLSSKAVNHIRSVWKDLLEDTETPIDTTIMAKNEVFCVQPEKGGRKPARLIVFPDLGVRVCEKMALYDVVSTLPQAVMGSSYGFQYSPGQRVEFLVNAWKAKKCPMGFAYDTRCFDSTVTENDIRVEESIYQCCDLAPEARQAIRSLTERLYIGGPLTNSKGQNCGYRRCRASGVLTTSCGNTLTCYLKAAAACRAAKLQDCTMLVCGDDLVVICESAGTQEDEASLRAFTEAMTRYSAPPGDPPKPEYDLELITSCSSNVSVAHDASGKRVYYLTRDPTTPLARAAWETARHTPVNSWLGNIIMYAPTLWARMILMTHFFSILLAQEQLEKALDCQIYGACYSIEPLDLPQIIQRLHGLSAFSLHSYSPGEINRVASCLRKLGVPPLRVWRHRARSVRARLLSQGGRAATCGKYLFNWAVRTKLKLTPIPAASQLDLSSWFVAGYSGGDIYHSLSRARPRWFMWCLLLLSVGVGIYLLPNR", "test": "Hepatitis C polymerase (BB7) inhibition", "format": "biochemical", "summary_of_the_method": "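Con1 (BB7) replicon-derived NS5B polymerase preincubated with compound (15% DMSO) 15 min at room temperature, then RNA template (~3 nM pOF) and nucleotides added. Reaction run 2 h at 22-25° C., stopped with EDTA (85 mM final). ^33P-labelled product captured on filters, washed with 0.5 M sodium phosphate pH 7.0, scintillation counted.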"}}, "note": "pIC50: −log10 of the molar value.", "data": [{"smiles": "CCCC1(CC(=O)O)OCCc2c1[nH]c1c(C)c(OCc3cc(C)n(CC)n3)cc(C#N)c21", "note": "(centres unmarked) [Example 140]", "values": [{"measurement": "pIC50", "setting": "[1]", "result": "> 6.30"}, {"measurement": "pIC50", "setting": "[2]", "result": "> 6.30"}]}, {"smiles": "CCCC1(CC(=O)O)OCCc2c1[nH]c1c(C)c(OCc3cc(Br)no3)cc(C#N)c21", "note": "(centres unmarked) [Example 81]", "values": [{"measurement": "pIC50", "setting": "[1]", "result": "> 6.30"}, {"measurement": "pIC50", "setting": "[2]", "result": "> 6.30"}]}, {"smiles": "CCCC1(CC(=O)O)OCCc2c1[nH]c1c(C)c(OCc3ccc(C(F)(F)F)nc3)cc(C#N)c21", "note": "(centres unmarked) [Example 73]", "values": [{"measurement": "pIC50", "setting": "[1]", "result": "> 6.30"}, {"measurement": "pIC50", "setting": "[2]", "result": "> 6.30"}]}, {"smiles": "CCC[C@]1(CC(=O)O)OCCc2c1[nH]c1c(C)c(OCCCOC)cc(C#N)c21", "note": "[Example 27, (R)-[5-Cyano-7-(3-methoxy-propoxy)-8-methyl-1-propyl-1,3,4,9-tetrahydro-pyrano[3,4-b]indol-1-yl]-acetic acid]", "values": [{"measurement": "pIC50", "setting": "[1]", "result": "> 6.30"}, {"measurement": "pIC50", "setting": "[2]", "result": "> 6.30"}]}]}
